Our source for the EC50 values is patent US8618151B2, “Inhibitors of HCV NS5A” (Presidio Pharmaceuticals, Inc., priority 2008, dated 2013).

This test relates to HCV genotype 1b replicon. The experiment in a line: HCV replicon assay (1b_Huh-Luc/Neo-ET cell line, luciferase readout). As to conditions: Hepatitis C virus, Huh-7, 72 h, read-out: Inhibition of HCV genotype 1b. The format is cell-based. As for the experimental part:
Biological activity of the compounds of the invention was determined using an HCV replicon assay. The 1b_Huh-Luc/Neo-ET cell line persistently expressing a bicistronic genotype 1b replicon in Huh 7 cells was obtained from ReBLikon GMBH. This cell line was used to test compound inhibition using luciferase enzyme activity readout as a measurement of compound inhibition of replicon levels.
On Day 1 (the day after plating), each compound is added in triplicate to the cells. Plates incubated for 72 h prior to running the luciferase assay. Enzyme activity was measured using a Bright-Glo Kit (cat. number E2620) manufactured by Promega Corporation. The following equation was used to generate a percent control value for each compound. % Control=(Average Compound Value/Average Control)*100
The EC50 value was determined using GraphPad Prism and the following equation: Y=Bottom+(Top−Bottom)/1+10^((Log IC50−X)*HillSlope))
EC50 values of compounds are repeated several times in the replicon assay.
Turning to `COC(=O)N[C@H](C(=O)N1CCC[C@H]1c1ncc(-c2ccc(-c3ccc4cc(-c5c[nH]c([C@@H]6CCCN6C(=O)[C@H](NC(=O)NC6CC6)c6ccccc6)n5)ccc4n3)cc2)[nH]1)C(C)C` [compound 38], the EC50 is less than 1 nM.
Then `COC(=O)N[C@H](C(=O)N1CCC[C@H]1c1ncc(-c2ccc(-c3ccc4cc(-c5c[nH]c([C@@H]6CCCN6C(=O)[C@@H](NC(=O)OC)C6CCOCC6)n5)ccc4n3)cc2)[nH]1)C(C)C` [compound 39], with less than 1 nM; and `COC(=O)N[C@H](C(=O)N1CCC[C@H]1c1ncc(-c2ccc(-c3ccc4cc(-c5c[nH]c([C@@H]6CCCN6C(=O)[C@@H](NC(=O)OC)[C@@H](C)OC)n5)ccc4n3)cc2)[nH]1)C(C)C` [compound 40], with less than 1 nM; and `COC(=O)N[C@@H](C)C(=O)N1CCC[C@H]1c1nc(-c2ccc3nc(-c4ccc(-c5cnc([C@@H]6CCCN6C(=O)[C@@H](NC(=O)OC)C(C)C)[nH]5)cc4)ccc3c2)c[nH]1` [compound 41], with less than 1 nM.
As for `COC(=O)N[C@H](C(=O)N1CCC[C@H]1c1nc(-c2ccc3nc(-c4ccc(-c5cnc([C@@H]6CCCN6C(=O)[C@@H](NC(=O)OC)C6CCOCC6)[nH]5)cc4)ccc3c2)c[nH]1)C(C)C` [compound 42], the figure is less than 1 nM.
On to `COC(=O)N[C@H](C(=O)N1CCC[C@H]1c1nc(-c2ccc3nc(-c4ccc(-c5cnc([C@@H]6CCCN6C(=O)[C@@H](NC(=O)OC)[C@@H](C)OC)[nH]5)cc4)ccc3c2)c[nH]1)C(C)C` [compound 43], for which the EC50 is less than 1 nM.
Consider `COC(=O)N[C@@H](C)C(=O)N1CCC[C@H]1c1ncc(-c2ccc(-c3ccc4cc(-c5c[nH]c([C@@H]6CCCN6C(=O)[C@@H](NC(=O)OC)C(C)C)n5)ccc4n3)cc2)[nH]1` [compound 44], for which the EC50 was less than 1 nM.
In the case of `COC(=O)N[C@H](C(=O)N1CCC[C@H]1c1ncc(-c2ccc(-c3ccc4cc(-c5c[nH]c([C@@H]6CCCN6C(=O)[C@H](NC(=O)OC)c6ccccc6)n5)cnc4c3)cc2)[nH]1)C(C)C` [compound 45], the EC50 was less than 1 nM.
Consider `COC(=O)N[C@H](C(=O)N1CCC[C@H]1c1nc(-c2ccc3cc(-c4ccc(-c5cnc([C@@H]6CCCN6C(=O)[C@@H](NC(=O)OC)C6CCOCC6)[nH]5)cc4)ccc3c2)c[nH]1)C(C)C` [compound 46], for which the EC50 was less than 1 nM.
As for `COC(=O)N[C@H](C(=O)N1CCC[C@H]1c1ncc(-c2ccc(-c3ccc4cc(-c5c[nH]c([C@@H]6CCCN6C(=O)[C@@H](NC(=O)OC)C6CCOCC6)n5)ccc4c3)cc2)[nH]1)C(C)C` [compound 47], the figure is less than 1 nM; as for `COC(=O)N[C@H](C(=O)N1CCC[C@H]1c1ncc(-c2ccc(-c3ccc4cc(-c5c[nH]c([C@@H]6CCCN6C(=O)[C@H](NC(=O)OC)c6ccccc6)n5)ccc4c3)nc2)[nH]1)C(C)C` [compound 48], less than 1 nM.
Turning to `COC(=O)N[C@H](C(=O)N1CCC[C@H]1c1nc(-c2cnc3cc(-c4ccc(-c5cnc([C@@H]6CCCN6C(=O)[C@@H](NC(=O)OC)C6CCOCC6)[nH]5)cc4)ccc3c2)c[nH]1)C(C)C` [compound 49], the EC50 was less than 1 nM.
Then `COC(=O)N[C@H](C(=O)N1CCC[C@H]1c1ncc(-c2ccc(-c3ccc4cc(-c5c[nH]c([C@@H]6CCCN6C(=O)[C@@H](NC(=O)OC)C6CCOCC6)n5)cnc4c3)cc2)[nH]1)C(C)C` [compound 50], with less than 1 nM; and `COC(=O)N[C@H](C(=O)N1CCC[C@H]1c1nc(-c2ccc3cc(-c4ccc(-c5cnc([C@@H]6CCCN6C(=O)[C@@H](NC(=O)OC)C6CCOCC6)[nH]5)cn4)ccc3c2)c[nH]1)C(C)C` [compound 51], with less than 1 nM.
`COC(=O)N[C@H](C(=O)N1CCC[C@H]1c1ncc(-c2ccc(-c3ccc4cc(-c5c[nH]c([C@@H]6CCCN6C(=O)[C@@H](NC(=O)OC)C6CCOCC6)n5)ccc4c3)nc2)[nH]1)C(C)C` [compound 52]: the EC50 was less than 1 nM.
With `COC(=O)N[C@H](C(=O)N1CCC[C@H]1c1nc(-c2ccc3nc(-c4ccc(-c5cnc([C@@H]6CCCN6C(=O)[C@@H](NC(=O)OC)C(C)C)[nH]5)nc4)ccc3c2)c[nH]1)C(C)C` [compound 53], the EC50 was less than 1 nM.
For `COC(=O)N[C@@H](C(=O)N1CCC[C@H]1c1nc(-c2ccc3nc(-c4ccc(-c5cnc([C@@H]6CCCN6C(=O)[C@H](NC(=O)OC)c6ccccc6)[nH]5)nc4)ccc3c2)c[nH]1)c1ccccc1` [compound 54], the EC50 was less than 1 nM.
Then `COC(=O)N[C@H](C(=O)N1CCC[C@H]1c1nc(-c2ccc3cc(-c4ccc(-c5cnc([C@@H]6CCCN6C(=O)[C@H](NC(=O)OC)c6ccccc6)[nH]5)cn4)ccc3c2)c[nH]1)C(C)C` [compound 56], with less than 1 nM.
In the case of `COC(=O)N[C@H](C(=O)N1CCC[C@H]1c1nc(-c2cnc3cc(-c4ccc(-c5cnc([C@@H]6CCCN6C(=O)[C@@H](NC(=O)OC)C(C)C)[nH]5)cc4F)ccc3c2)c[nH]1)C(C)C` [compound 57], the EC50 was less than 1 nM.
On to `COC(=O)N[C@H](C(=O)N1CCC[C@H]1c1ncc(-c2ccc(-c3ccc4cc(-c5c[nH]c([C@@H]6CCCN6C(=O)[C@H](NC(=O)OC)c6ccccc6)n5)cnc4c3)c(F)c2)[nH]1)C(C)C` [compound 58], for which the EC50 is less than 1 nM.
As for `COC(=O)N[C@H](C(=O)N1CCC[C@H]1c1ncc(-c2ccc(-c3ccc4cc(-c5c[nH]c([C@@H]6CCCN6C(=O)[C@@H](NC(=O)OC)C6CCOCC6)n5)cnc4c3)c(F)c2)[nH]1)C(C)C` [compound 59], the EC50 was less than 1 nM.
Turning to `COC(=O)N[C@H](C(=O)N1CCC[C@H]1c1ncc(-c2ccc(-c3ccc4cc(-c5c[nH]c([C@@H]6CCCN6C(=O)[C@H](NC(=O)OC)c6ccccc6)n5)cnc4c3)nc2)[nH]1)C(C)C` [compound 60], the EC50 is less than 1 nM.
Take `COC(=O)N[C@H](C(=O)N1CCC[C@H]1c1ncc(-c2ccc(-c3ccc4cc(-c5c[nH]c([C@@H]6CCCN6C(=O)[C@@H](NC(=O)OC)C6CCOCC6)n5)cnc4c3)nc2)[nH]1)C(C)C` [compound 61]: the EC50 is less than 1 nM.
Then `COC(=O)N[C@H](C(=O)N1CCC[C@H]1c1nc(-c2cnc3cc(-c4ccc(-c5cnc([C@@H]6CCCN6C(=O)[C@@H](NC(=O)OC)C6CCOCC6)[nH]5)cn4)ccc3c2)c[nH]1)C(C)C` [compound 62], with less than 1 nM.
As for `COC(=O)N[C@H](C(=O)N1CCC[C@H]1c1nc(-c2ccc3cc(-c4ccc(-c5cnc([C@@H]6CCCN6C(=O)[C@H](NC(=O)OC)c6ccccc6)[nH]5)nc4)ccc3c2)c[nH]1)C(C)C` [compound 63], the figure is less than 1 nM.
As to `COC(=O)N[C@H](C(=O)N1CCC[C@H]1c1nc(-c2ccc3cc(-c4ccc(-c5cnc([C@@H]6CCCN6C(=O)[C@H](NC(=O)OC)c6ccccc6)[nH]5)cc4F)ccc3c2)c[nH]1)C(C)C` [compound 64], the EC50 was less than 1 nM.
Regarding `COC(=O)N[C@H](C(=O)N1CCC[C@H]1c1nc(-c2ccc3cc(-c4ccc(-c5cnc([C@@H]6CCCN6C(=O)[C@@H](NC(=O)OC)C6CCOCC6)[nH]5)cc4F)ccc3c2)c[nH]1)C(C)C` [compound 65], the EC50 was less than 1 nM.
Then `COC(=O)N[C@H](C(=O)N1CCC[C@H]1c1nc(-c2ccc3cc(-c4ccc(-c5cnc([C@@H]6CCCN6C(=O)[C@@H](NC(=O)OC)C(C)C)[nH]5)cc4F)ccc3c2)c[nH]1)C(C)C` [compound 66], with less than 1 nM; and `COC(=O)N[C@H](C(=O)N1CCC[C@H]1c1ncc(-c2ccc(-c3ccc4cc(-c5c[nH]c([C@@H]6CCCN6C(=O)[C@H](NC(=O)OC)c6ccccc6)n5)ccc4c3)c(F)c2)[nH]1)C(C)C` [compound 67], with less than 1 nM.
For `COC(=O)N[C@H](C(=O)N1CCC[C@H]1c1ncc(-c2ccc(-c3ccc4cc(-c5c[nH]c([C@@H]6CCCN6C(=O)[C@@H](NC(=O)OC)C6CCOCC6)n5)ccc4c3)c(F)c2)[nH]1)C(C)C` [compound 68], the EC50 is less than 1 nM.
As for `COC(=O)N[C@H](C(=O)N1CCC[C@H]1c1nc(-c2ccc3cc(-c4ccc(-c5cnc([C@@H]6CCCN6C(=O)[C@H](NC(=O)OC)c6ccccc6)[nH]5)cc4C)ccc3c2)c[nH]1)C(C)C` [compound 69], the figure is less than 1 nM; as for `COC(=O)N[C@H](C(=O)N1CCC[C@H]1c1ncc(-c2ccc(-c3ccc4cc(-c5c[nH]c([C@@H]6CCCN6C(=O)[C@H](NC(=O)OC(C)(C)C)c6ccccc6)n5)ccc4n3)cn2)[nH]1)C(C)C` [compound 70], less than 1 nM; as for `COC(=O)N[C@H](C(=O)N1CCC[C@H]1c1nc(-c2cnc3cc(-c4ccc(-c5cnc([C@@H]6CCCN6C(=O)[C@H](NC(=O)OC)c6ccccc6)[nH]5)cc4)ccc3c2)c[nH]1)C1CCOCC1` [compound 71], less than 1 nM.
On to `COC(=O)N[C@H](C(=O)N1CCC[C@H]1c1nc(-c2cnc3cc(-c4ccc(-c5cnc([C@@H]6CCCN6C(=O)[C@H](NC(=O)OC(C)(C)C)c6ccccc6)[nH]5)cc4)ccc3c2)c[nH]1)C1CCOCC1` [compound 72], for which the EC50 is less than 1 nM.
As for `COC(=O)N[C@H](C(=O)N1CCC[C@H]1c1nc(-c2cnc3cc(-c4ccc(-c5cnc([C@@H]6CCCN6C(=O)[C@@H](NC(=O)OC)C6CCOCC6)[nH]5)cc4)ccc3c2)c[nH]1)C1CCOCC1` [compound 73], the figure is less than 1 nM; as for `COC(=O)N[C@H](C(=O)N1CCC[C@H]1c1nc(-c2cnc3cc(-c4ccc(-c5cnc([C@@H]6CCCN6C(=O)[C@@H](NC(=O)OC)C(C)C)[nH]5)cn4)ccc3c2)c[nH]1)C(C)C` [compound 74], less than 1 nM.
Then `COC(=O)N[C@H](C(=O)N1CCC[C@H]1c1nc(-c2cnc3cc(-c4ccc(-c5cnc([C@@H]6CCCN6C(=O)[C@@H](NC(=O)OC)C6CCOCC6)[nH]5)cn4)ccc3c2)c[nH]1)C1CCOCC1` [compound 75], with less than 1 nM.
